For 19 molecules, melting point and IC50 results are on record in patent US7459567B2, “Substituted thienyl and furyl acylguanidines and methods of their use as beta-secretase modulators” (Wyeth, priority 2005, dated 2008).

The target of one data set is human BACE1 (Homo sapiens, UniProt P56817). The data set is described as follows: Fluorescent kinetic assay, BACE1 inhibition (FRET peptide substrate cleavage). The conditions noted are these: 10 nM BACE1, 25 μM substrate WABC-6, 50 mM Na-Acetate pH 4.5, room temperature. The format is biochemical.

The structures appear in SMILES notation.

human BACE1, sequence (P56817 46-501): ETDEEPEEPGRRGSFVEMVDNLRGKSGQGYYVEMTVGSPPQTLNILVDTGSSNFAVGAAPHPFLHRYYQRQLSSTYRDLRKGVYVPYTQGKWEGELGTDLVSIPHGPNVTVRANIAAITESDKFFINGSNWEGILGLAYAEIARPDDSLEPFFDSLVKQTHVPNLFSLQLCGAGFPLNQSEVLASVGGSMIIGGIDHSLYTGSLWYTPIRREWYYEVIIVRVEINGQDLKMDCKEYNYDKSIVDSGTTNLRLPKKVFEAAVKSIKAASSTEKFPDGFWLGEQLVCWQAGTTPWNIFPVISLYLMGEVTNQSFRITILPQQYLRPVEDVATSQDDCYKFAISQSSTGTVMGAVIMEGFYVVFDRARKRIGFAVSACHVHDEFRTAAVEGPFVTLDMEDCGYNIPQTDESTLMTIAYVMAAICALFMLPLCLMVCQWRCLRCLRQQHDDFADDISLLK

Consider `CCCOc1ccc(-c2scc(-c3ccccc3Cl)c2CC(=O)N=C(N)N)cc1` [Example 1, N″-{[4-(2-Chlorophenyl)-2-(4-propoxyphenyl)thien-3-yl]acetyl}guanidine], for which the melting point (as a rule, the temperature of the solid-liquid transition) fell in the range of 98 to 99 °C.
Regarding `NC(N)=NC(=O)Cc1c(-c2ccccc2)csc1-c1ccccc1` [Example 2, N″-[(2,4-Diphenylthien-3-yl)acetyl]guanidine], the melting point is 204 to 205.5 °C.
`NC(N)=NC(=O)Cc1c(-c2ccccc2)csc1-c1ccc(Oc2ccccc2)cc1` [Example 3, N″-{[2-(4-Phenoxyphenyl)-4-phenylthien-3-yl]acetyl}guanidine] yielded a melting point of 116 to 118 °C. Also, the IC50 (usually the concentration at which inhibition is half-maximal) at human BACE1 was determined as 2060 nM.
The corresponding values for `NC(N)=NC(=O)Cc1c(-c2ccccc2Cl)csc1-c1ccc(Oc2ccccc2)cc1` [Example 4, N″-{[4-(2-Chlorophenyl)-2-(4-phenoxyphenyl)thien-3-yl]acetyl}guanidine] are 76 to 78 °C and 1600 nM.
`CCCOc1ccc(-c2csc(-c3ccccc3Cl)c2CC(=O)N=C(N)N)cc1` [Example 5, N″-{[2-(2-Chlorophenyl)-4-(4-propoxyphenyl)thien-3-yl]acetyl}guanidine] gave a melting point of 111 to 113 °C.
`CCCOc1ccc(-c2scc(-c3ccccc3OC(F)(F)F)c2CC(=O)N=C(N)N)cc1` [Example 6, N″-({2-(4-Propoxyphenyl)-4-[2-(trifluoromethoxy)phenyl]thien-3-yl}acetyl)guanidine] returned a melting point of 90 to 92 °C. In addition, the IC50 against human BACE1 amounted to 1600 nM.
For the molecule `CCCOc1ccc(-c2scc(-c3ccccc3)c2CC(=O)NC(=N)N)cc1` [Example 7, N-{[4-Phenyl-2-(4-propoxyphenyl)thien-3-yl]acetyl}guanidine], the melting point lay within 94 to 95 °C.
As to `CCCOc1ccc(-c2csc(-c3ccccc3)c2CC(=O)N=C(N)N)cc1` [Example 8, N″-{[2-Phenyl-4-(4-propoxyphenyl)thien-3-yl]acetyl}guanidine], the melting point was 131 to 132 °C.
With `CC(=O)c1ccc(Oc2ccc(-c3scc(-c4ccccc4Cl)c3CC(=O)N=C(N)N)cc2)cc1` [Example 9, N″-{[2-[4-(4-Acetylphenoxy)phenyl]-4-(2-chlorophenyl)thien-3-yl]acetyl}guanidine], the melting point fell in the range of 117 to 118 °C.
With `CCC(=O)c1ccc(Oc2ccc(-c3scc(-c4ccccc4Cl)c3CC(=O)N=C(N)N)cc2)cc1` [Example 10, N″-({4-(2-Chlorophenyl)-2-[4-(4-propionylphenoxy)phenyl]thien-3-yl}acetyl)guanidine], the melting point is 123 to 124 °C. Besides, 1730 nM corresponded to half-maximal inhibition against human BACE1 (IC50).
For `NC(N)=NC(=O)Cc1c(-c2ccccc2Cl)csc1-c1ccc(OCCc2cn[nH]c2)cc1` [Example 11, 2-(4-(2-Chlorophenyl)-2-{4-[2-(1H-pyrazol-4-yl)ethoxy]phenyl}-thien-3-yl)-N-(diaminomethylene)acetamide], the melting point is 71 to 72 °C.
`CCCOc1ccc(-c2scc(-c3ccccc3Cl)c2CC(=O)NC(=N)NCCCO)cc1` [Example 12, 2-[4-(2-Chlorophenyl)-2-(4-propoxyphenyl)thien-3-yl]-N-[[(3-hydroxypropyl)amino](imino)methyl]acetamide] displayed a melting point of 49 to 50 °C.
On the same count and under the same terms, the result for `CCC(CC)NC(=O)c1ccc(-c2scc(-c3ccccc3Cl)c2CC(=O)NC(=N)NCCCO)cc1` [Example 13, 4-[4-(2-Chlorophenyl)-3-(2-{[[(3-hydroxypropyl)amino](imino)-methyl]amino}-2-oxoethyl)thien-2-yl]-N-(1-ethylpropyl)benzamide] reads 109 to 110 °C; that for `N=C(NCCCO)NC(=O)Cc1c(-c2ccccc2Cl)csc1-c1ccc(C(=O)NCC(F)(F)F)cc1` [Example 14, 4-[4-(2-Chlorophenyl)-3-(2-{[[(3-hydroxypropyl)amino](imino)-methyl]amino}-2-oxoethyl)thien-2-yl]-N-(2,2,2-trifluoroethyl)benzamide], 103 to 105 °C.
As to `CCCNC(=O)c1ccc(-c2scc(-c3ccccc3Cl)c2CC(=O)NC(=N)NCCCO)cc1` [Example 15, 4-[4-(2-Chlorophenyl)-3-(2-{[[(3-hydroxypropyl)amino](imino)-methyl]amino}-2-oxoethyl)thien-2-yl]-N-propylbenzamide], the melting point fell in the range of 116 to 118 °C.
Turning to `N=C(NCCCO)NC(=O)Cc1c(-c2ccccc2Cl)csc1-c1ccc(C(=O)NCC2CC2)cc1` [Example 16, 4-[4-(2-Chlorophenyl)-3-(2-{[[(3-hydroxypropyl)amino](imino)-methyl]amino}-2-oxoethyl)thien-2-yl]-N-(cyclopropylmethyl)benzamide], the melting point fell in the range of 100 to 101 °C.
With `CCCCNC(=O)c1ccc(-c2scc(-c3ccccc3Cl)c2CC(=O)NC(=N)NCCCO)cc1` [Example 17, N-Butyl-4-[4-(2-chlorophenyl)-3-(2-{[[(3-hydroxypropyl)amino]-(imino)methyl]amino}-2-oxoethyl)thien-2-yl]benzamide], the melting point lay in the range of 92 to 95 °C.
Take `CCCOc1ccc(-c2scc(-c3ccccc3Cl)c2CC(=O)NC(=N)NCCCO)cc1C` [Example 18, 2-[4-(2-Chlorophenyl)-2-(3-methyl-4-propoxyphenyl)thien-3-yl]-N-[[(3-hydroxypropyl)amino](imino)methyl]acetamide]: the melting point is 73 to 76 °C.
Same read-out and setting: the result for `CCCOc1ccc(-c2scc(-c3ccccc3Cl)c2CC(=O)NC(=N)NCCCO)c(C)c1` [Example 19, 2-[4-(2-Chlorophenyl)-2-(2-methyl-4-propoxyphenyl)thien-3-yl]-N-[[(3-hydroxypropyl)amino](imino)methyl]acetamide] reads 103 to 105.5 °C.
